Results: US20230111310A1, “CARBOXYLIC ACID DERIVATIVE-SUBSTITUTED IMINO ARYL COMPOUND, PREPARATION METHOD THEREFOR, HERBICIDAL COMPOSITION AND USE THEREOF” (Qingdao Kingagroot Chemical Compound Co., Ltd., priority 2020, published 2023)

Experiments:
Experiment in all cases: Weeding effect in post-emergence stage
Assay type in all cases: in vivo
Details in all cases: Dose 15 g/ha; level of fresh weight growth control rate
[1] = tested on: Abutilon theophrasti
Description: (§1) The activity level criteria for plant damage (i.e., growth control rate) are as follows:
(§2) Monocotyledonous and dicotyledonous weed seeds (Descurainia sophia, Capsella bursa-pastoris, Abutilon theophrasti, Galium aparine, Stellaria media, Lithospermum arvense, rorippa indica, Alopecurus aequalis, Alopecurus japonicus, Eleusine indica, Beckmannia syzigachne, Sclerochloa dura, Conyza Canadensis, Phleum paniculatum, Veronica didyma Tenore, Bromus japonicus, Aegilops tauschii, Phalaris arundinacea, Amaranthus retroflexus, Chenopodiaceae, Commelina communis, Sonchus arvensis, Convolvulus arvensis, Cirsium setosum, Bidens tripartita L., Solanum nigrum, Acalypha australis, Digitaria sanguinalis, Echinochloa crusgalli, Setaria viridis, Setaria glauca, Leptochloa chinensis, Monochoria vaginalis, Sagittaria trifolia, Scirpus juncoides, Cyperus rotundus, Cyperus iria, Cyperus difformis, Fimbristylis, Portulaca oleracea, Xanthium sibiricum, Pharbitis nil, etc.) and major crop seeds (wheat, corn, rice, soybean, cotton, oilseed rape, millet, sorghum, potato, sesame, ricinus, etc.) were placed in plastic pots filled with soil, then covered with 0.5-2 cm of soil, allowed to grow in a good greenhouse environment. After 2 weeks of sowing, the test plants were treated in the 2-3 leaf stage. The tested compounds of the present invention were respectively dissolved in acetone, then added with Tween 80 and 1.5 liter/ha of emulsifiable concentrate of methyl oleate as synergist, diluted with a certain amount of water to obtain a solution with a certain concentration, and sprayed with a spray tower onto the plants. After the application, the plants were cultured for 3 weeks in the greenhouse, and then the experimental results of the weeding were counted. […]

[2] = tested on: Alopecurus japonicus
Description: as §1, §2

[3] = tested on: Digitaria sanguinalis
Description: as §1, §2

[4] = tested on: Eleusine indica
Description: as §1, §2

[5] = tested on: Setaria viridis
Description: as §1, §2

[6] = tested on: Echinochloa crusgalli
Description: as §1
Monocotyledonous and dicotyledonous weed seeds (Descurainia sophia, Capsella bursa-pastoris, Abutilon theophrasti, Galium aparine, Stellaria media, Lithospermum arvense, rorippa indica, Alopecurus aequalis, Alopecurus japonicus, Eleusine indica, Beckmannia syzigachne, Sclerochloa dura, Conyza Canadensis, Phleum paniculatum, Veronica didyma Tenore, Bromus japonicus, Aegilops tauschii, Phalaris arundinacea, Amaranthus retroflexus, Chenopodiaceae, Commelina communis, Sonchus arvensis, Convolvulus arvensis, Cirsium setosum, Bidens tripartita L., Solanum nigrum, Acalypha australis, Digitaria sanguinalis, Echinochloa crusgalli, Setaria viridis, Setaria glauca, Leptochloa chinensis, Monochoria vaginalis, Sagittaria trifolia, Scirpus juncoides, Cyperus rotundus, Cyperus iria, Cyperus difformis, Fimbristylis, Portulaca oleracea, Xanthium sibiricum, Pharbitis nil, etc.) and major crop seeds (wheat, corn, rice, soybean, cotton, oilseed rape, millet, sorghum, potato, sesame, ricinus, etc.) were placed in plastic pots filled with soil, then covered with 0.5-2 cm of soil, allowed to grow in a good greenhouse environment. After 2 weeks of sowing, the test plants were treated in the 2-3 leaf stage. The tested compounds of the present invention were respectively dissolved in acetone, then added with Tween 80 and 1.5 liter/ha of emulsifiable concentrate of methyl oleate as synergist, diluted with a certain amount of water to obtain a solution with a certain concentration, and sprayed with a spray tower onto the plants. After the application, the plants were cultured for 3 weeks in the greenhouse, and then the experimental results of the weeding were counted. The doses of the used compounds were 500, 250, 125, 60, 30, 15, 7.5 g/ha, and the averages were obtained by repeating for three times.

SMILES | Weeding effect in post-emergence stage, Abutilon theophrasti [1] | Weeding effect in post-emergence stage, Alopecurus japonicus [2] | Weeding effect in post-emergence stage, Digitaria sanguinalis [3] | Weeding effect in post-emergence stage, Eleusine indica [4] | Weeding effect in post-emergence stage, Setaria viridis [5] | Weeding effect in post-emergence stage, Echinochloa crusgalli [6]
CCOC(=O)COC(=O)C(C)O/N=C/c1cc(-n2c(=O)n(C)c(=S)n(C)c2=O)c(F)cc1Cl (racemic) [Compound 17] | 5 (Level 5: growth control rate is above 85%) | 5 (Level 5: growth control rate is above 85%) | 5 (Level 5: growth control rate is above 85%) | 5 (Level 5: growth control rate is above 85%) | 5 (Level 5: growth control rate is above 85%) | 5 (Level 5: growth control rate is above 85%)
CCOC(=O)C(C)O/N=C/c1cc(-n2c(=O)n(C)c(=S)n(C)c2=O)c(F)cc1C(F)(F)F (racemic) [Compound 86] | 5 (Level 5: growth control rate is above 85%) | 3 (Level 3: growth control rate is greater than or equal to 40% and less than 60%) | 3 (Level 3: growth control rate is greater than or equal to 40% and less than 60%) | 5 (Level 5: growth control rate is above 85%) | 4 (Level 4: growth control rate is greater than or equal to 60% and less than 85%) | 4 (Level 4: growth control rate is greater than or equal to 60% and less than 85%)
COC(=O)C(C)O/N=C/c1cc(-n2c(=O)n(C)c(=S)n(C)c2=O)c(F)cc1C#N (racemic) [Compound 87] | 5 (Level 5: growth control rate is above 85%) | 5 (Level 5: growth control rate is above 85%) | 5 (Level 5: growth control rate is above 85%) | 5 (Level 5: growth control rate is above 85%) | 5 (Level 5: growth control rate is above 85%) | 5 (Level 5: growth control rate is above 85%)
CCOC(=O)C(C)O/N=C/c1cc(-n2c(=O)n(C)c(=S)n(C)c2=O)c(F)cc1C#N (racemic) [Compound 88] | 5 (Level 5: growth control rate is above 85%) | 5 (Level 5: growth control rate is above 85%) | 5 (Level 5: growth control rate is above 85%) | 5 (Level 5: growth control rate is above 85%) | 5 (Level 5: growth control rate is above 85%) | 5 (Level 5: growth control rate is above 85%)
COC(=O)C(C)O/N=C/c1cc(-n2c(=O)n(C)c(=S)n(C)c2=S)c(F)cc1Cl (racemic) [Compound 124] | 5 (Level 5: growth control rate is above 85%) | 4 (Level 4: growth control rate is greater than or equal to 60% and less than 85%) | 5 (Level 5: growth control rate is above 85%) | 5 (Level 5: growth control rate is above 85%) | 5 (Level 5: growth control rate is above 85%) | 5 (Level 5: growth control rate is above 85%)
CCOC(=O)C(C)O/N=C/c1cc(-n2c(=O)n(C)c(=S)n(C)c2=S)c(F)cc1Br (racemic) [Compound 161] | 5 (Level 5: growth control rate is above 85%) | 4 (Level 4: growth control rate is greater than or equal to 60% and less than 85%) | 4 (Level 4: growth control rate is greater than or equal to 60% and less than 85%) | 5 (Level 5: growth control rate is above 85%) | 5 (Level 5: growth control rate is above 85%) | 5 (Level 5: growth control rate is above 85%)
COC(=O)C(C)O/N=C/c1cc(-n2c(=O)n(C)c(=O)n(C)c2=O)c(F)cc1Cl (racemic) [Compound 164] | 5 (Level 5: growth control rate is above 85%) | 5 (Level 5: growth control rate is above 85%) | 5 (Level 5: growth control rate is above 85%) | 5 (Level 5: growth control rate is above 85%) | 5 (Level 5: growth control rate is above 85%) | 5 (Level 5: growth control rate is above 85%)
CCSC(=O)C(C)O/N=C/c1cc(-n2c(=O)n(C)c(=S)n(C)c2=O)c(F)cc1Cl (racemic) [Compound 168] | 5 (Level 5: growth control rate is above 85%) | 5 (Level 5: growth control rate is above 85%) | 5 (Level 5: growth control rate is above 85%) | 5 (Level 5: growth control rate is above 85%) | 5 (Level 5: growth control rate is above 85%) | 5 (Level 5: growth control rate is above 85%)
COC(=O)CCNC(=O)C(C)O/N=C/c1cc(-n2c(=O)n(C)c(=S)n(C)c2=O)c(F)cc1Cl (racemic) [Compound 183] | 5 (Level 5: growth control rate is above 85%) | 5 (Level 5: growth control rate is above 85%) | 5 (Level 5: growth control rate is above 85%) | 5 (Level 5: growth control rate is above 85%) | 5 (Level 5: growth control rate is above 85%) | 5 (Level 5: growth control rate is above 85%)
CC(O/N=C/c1cc(-n2c(=O)cc(C(F)(F)F)n(C)c2=O)c(F)cc1Cl)C(=O)O (racemic) [Compound 193] | 5 (Level 5: growth control rate is above 85%) | 5 (Level 5: growth control rate is above 85%) | 5 (Level 5: growth control rate is above 85%) | 5 (Level 5: growth control rate is above 85%) | 5 (Level 5: growth control rate is above 85%) | 5 (Level 5: growth control rate is above 85%)
